In assay [1] the test system is Haemonchus contortus. In words: Method B: Haemonchus contortus in vivo in Mongolian gerbil, oral gavage. Set-up: species or system Mongolian gerbil (Meriones unguiculatus). The note with it: 72 h, Mongolian gerbils, read-out: reduction in nematode infestation. Here is the method: Method B: Screening Method to Test Activity of Compounds Against Haemonchus contortus In Vivo in Mongolian Gerbil (Meriones unguiculatus).
Mongolian gerbils, at least five weeks old, were immunosuppressed and artificially infected with ca. 1000 ensheathed Haemonchus contortus third instar larvae. Six days after infection, the Mongolian gerbils were treated by oral gavage with the test compounds, dissolved in a mixture of 2 parts DMSO and 1 part polyethylene glycol (PEG400), at doses of 100 mg/kg and dissolved in pure polyethylene glycol (PEG400) at doses of 10 and 1 mg/kg. Jirds treated only with the placebo (2 parts DMSO and 1 part PEG400 or pure PEG400) served as controls. On day 9 (3 days after treatment) the jirds were euthanized and necropsied for recovery of parasites from the stomach. Efficacy was calculated as the average % reduction in the number of worms in each test group compared with the average number of worms from the control group. […] Compound numbers 1.001, 1.008, 1.012, 1.013 and 1.014 provided at least 95% reduction in nematode infestation in Mongolian gerbils treated by oral gavage with test article at a dose of 100 mg/kg. Compound numbers 1.012, 1.033, 1.064, 2.008, 2.037, 2.038, 2.040, 2.041, 3.001 provided at least 95% reduction in nematode infestation at a dose of 10 mg/kg. Compound numbers 1.094, 2.048, 3.001, 3.007 and 3.009, provided at least 95% reduction in nematode infestation at a dose of 1 mg/kg. Compound numbers 3.005, 3.006, 3.011, 3.012, 3.017 and 3.019, provided at least 95% reduction in nematode infestation at a dose of 0.5 mg/kg.

The test system of assay [2] is Trichostrongylus colubriformis. In words: Method D: screening against Trichostrongylus colubriformis, L1 larvae in microtitre plate. The note with it: 96 h, 4 days assessment, read-out: motility inhibition; for inhibition at 0.04 ppm: test concentration 0.04 ppm; for inhibition at 0.01 ppm: test concentration 0.01 ppm; for inhibition at 0.15 ppm: test concentration 0.15 ppm. Here is the method:
Method D: Screening Method to Test Activity of Compounds Against Trichostrongylus colubriformis.
Twenty L1 Trichostrongylus colubriformis larvae were added to wells of a microtitre plate containing a nutrient medium and the test compound in DMSO. The microtitre plate was then held at 27° C. where the L1 larvae were allowed to develop. An analysis was conducted at 4 days to determine successful development to the L3 stage. Larvae exposed to DMSO and no test compound served as controls. Compounds numbers 1.008, 1.014, 1.042, 1.047, 1.048, 1.073, 2.001, 2.003 and 2.020, gave at least 90% motility inhibition at a test concentration of 0.15 ppm at the 4 days assessment. Compounds numbers 1.001, 1.003, 1.007, 1.011, 1.037, 1.038, 1.043, 1.056, 1.066, 1.070, 1.071, 2.012 and 2.016, gave at least 90% motility inhibition at a test concentration of 0.04 ppm at the 4 days assessment. Compounds numbers 1.012, 1.020, 1.021, 1.033, 1.034, 1.039, 1.064, 1.065, 2.008, 2.009 and 3.005 gave at least 90% motility inhibition at a test concentration of 0.01 ppm at the 4 days assessment. Compounds numbers 1.094, 2.040, 2.048, 2.049, 3.006, 3.009, 3.011 and 3.012 gave at least 90% motility inhibition at a test concentration of 0.0025 ppm at the 4 days assessment.

Assay [3] has as its system Haemonchus contortus. In words: Method A: screening against Haemonchus contortus, L1 larvae in microtitre plate. The note with it: 96 h, 4 days assessment, read-out: motility inhibition; for inhibition at 0.01 ppm: test concentration 0.01 ppm; for inhibition at 0.04 ppm: test concentration 0.04 ppm; for inhibition at 0.15 ppm: test concentration 0.15 ppm; for inhibition at 0.0025 ppm: test concentration 0.0025 ppm. The source says: Method A: Screening Method to Test Activity of Compounds Against Haemonchus contortus.

The structures appear in SMILES notation.

As a reminder, the inhibition is the drop in the measured response relative to a control, in per cent.

Turning to `CC(C#N)(Cn1nc2ccc(Cl)cc2n1)NC(=O)c1ccc(OC(F)(F)F)cc1` (centres unmarked) [Compound 1.001, N-[2-(5-Chloro-2H-benzotriazol-2-yl)-1-cyano-1-methylethyl]-4-trifluoromethoxybenzamide], the inhibition in vivo at 100 mg/kg in assay [1] (dose 100 mg/kg, necropsy 3 days after treatment) was no less than 95%. Also, the inhibition at 0.04 ppm in assay [2] was no less than 90%. Further, the inhibition at 0.01 ppm in assay [3] is no less than 90%.
Turning to `CC(C#N)(Cn1nc2ccc(Br)cc2n1)NC(=O)c1ccc(OC(F)(F)F)cc1` (centres unmarked) [Compound 1.020, N-[2-(5-Bromo-2H-benzotriazol-2-yl)-1-cyano-1-methylethyl]-4-trifluoromethoxybenzamide], the inhibition at 0.01 ppm in assay [2] and in assay [3] was no less than 90% in each case.
Turning to `CC(C#N)(Cn1nc2cc(Cl)cc(C(F)(F)F)c2n1)NC(=O)c1ccc(OC(F)(F)F)cc1` (centres unmarked) [Compound 1.037, N-[2-(6-Chloro-4-trifluoromethyl-2H-benzotriazol-2-yl)-1-cyano-1-methylethyl]-4-trifluoromethoxybenzamide], the inhibition at 0.04 ppm in assay [2] is no less than 90%. The inhibition at 0.01 ppm in assay [3] was no less than 90%.
For the compound `Cc1cc(Cl)cc2nn(CC(C)(C#N)NC(=O)c3ccc(Oc4ccccc4)cc3)nc12` (centres unmarked) [Compound 1.039, N-[2-(6-Chloro-4-methyl-2H-benzotriazol-2-yl)-1-cyano-1-methylethyl]-4-phenoxybenzamide], the inhibition at 0.01 ppm in assay [2] and in assay [3] was no less than 90% throughout.
With `CC(C#N)(Cn1nc2cc(Cl)cc(C(F)(F)F)c2n1)NC(=O)c1ccc(Oc2ccccc2)cc1` (centres unmarked) [Compound 1.042, N-[2-(6-Chloro-4-trifluoromethyl-2H-benzotriazol-2-yl)-1-cyano-1-methylethyl]-4-phenoxybenzamide], the inhibition at 0.15 ppm in assay [2] was no less than 90%. In addition, the inhibition at 0.04 ppm in assay [3] was no less than 90%.
With `CC(C#N)(Cn1nc2cccc(Cl)c2n1)NC(=O)c1ccc(OC(F)(F)F)cc1` (centres unmarked) [Compound 1.043, N-[2-(4-Chloro-2H-benzotriazol-2-yl)-1-cyano-1-methylethyl]-4-trifluoromethoxybenzamide], the inhibition at 0.04 ppm in assay [2] and in assay [3] was no less than 90% each time.
Consider `CCC(C#N)(Cn1nc2ccc(Cl)cc2n1)NC(=O)c1ccc(OC(F)(F)F)cc1` (centres unmarked) [Compound 1.047, N-{1-[(5-Chloro-2H-benzotriazol-2-yl)methyl]-1-cyanopropyl}-4-trifluoromethoxybenzamide], for which the inhibition at 0.15 ppm in assay [2] is no less than 90%. Besides, in assay [3], the inhibition at 0.04 ppm is no less than 90%.
In the case of `CC(C#N)(Cn1nc2cc(C#N)cc(C(F)(F)F)c2n1)NC(=O)c1ccc(OC(F)(F)F)cc1` (centres unmarked) [Compound 1.056, N-[1-Cyano-2-(6-cyano-4-trifluoromethyl-2H-benzotriazol-2-yl)-1-methylethyl]-4-trifluoromethoxybenzamide], the inhibition at 0.04 ppm in assay [2] and in assay [3] was no less than 90% in each case.
As for `COc1cc(Cl)c2nn(CC(C)(C#N)NC(=O)c3ccc(OC(F)(F)F)cc3)nc2c1` (centres unmarked) [Compound 1.070, N-[2-(4-Chloro-6-methoxy-2H-benzotriazol-2-yl)-1-cyano-1-methylethyl]-4-trifluoromethoxybenzamide], the inhibition at 0.04 ppm in assay [2] and in assay [3] was no less than 90% each time.
As for `CC(C#N)(Cn1cc2cc([N+](=O)[O-])ccc2n1)NC(=O)c1ccc(OC(F)(F)F)cc1` (centres unmarked) [Compound 2.001, N-[1-Cyano-1-methyl-2-(5-nitro-2H-indazol-2-yl)ethyl]-4-trifluoromethoxybenzamide], the inhibition at 0.15 ppm in assay [2] is no less than 90%. Further, the inhibition at 0.04 ppm in assay [3] is no less than 90%.
With `CC(C#N)(Cn1cc2cc(Cl)cc(Cl)c2n1)NC(=O)c1ccc(OC(F)(F)F)cc1` (centres unmarked) [Compound 2.003, N-[1-Cyano-2-(5,7-dichloro-2H-indazol-2-yl)-1-methylethyl]-4-trifluoromethoxybenzamide], the inhibition at 0.15 ppm in assay [2] was no less than 90%. The inhibition at 0.04 ppm in assay [3] is no less than 90%.
Regarding `COc1c2cc(Cl)ccc2nn1CC(C)(C#N)NC(=O)c1ccc(OC(F)(F)F)cc1` (centres unmarked) [Compound 2.012, N-[2-(5-Chloro-3-methoxy-2H-indazol-2-yl)-1-cyano-1-methylethyl]-4-trifluoromethoxybenzamide], the inhibition at 0.04 ppm in assay [2] is no less than 90%. Further, the inhibition at 0.01 ppm in assay [3] is no less than 90%.
Turning to `COc1c2ccccc2nn1CC(C)(C#N)NC(=O)c1ccc(OC(F)(F)F)cc1` (centres unmarked) [Compound 2.016, N-[1-Cyano-2-(3-methoxy-2H-indazol-2-yl)-1-methylethyl]-4-trifluoromethoxybenzamide], the inhibition at 0.04 ppm in assay [2] and in assay [3] was no less than 90% each time.
As for `COc1c2cc(Cl)cc(Cl)c2nn1CC(C)(C#N)NC(=O)c1ccc(OC(F)(F)F)cc1` (centres unmarked) [Compound 2.020, N-[1-Cyano-2-(5,7-dichloro-3-methoxy-2H-indazol-2-yl)-1-methylethyl]-4-trifluoromethoxybenzamide], the inhibition at 0.15 ppm in assay [2] and in assay [3] was no less than 90% throughout.
As to `CC(C#N)(Cn1cc2ccc(Cl)cc2n1)NC(=O)c1ccc(OC(F)(F)F)cc1` (centres unmarked) [Compound 2.037, N-[2-(6-Chloro-2H-indazol-2-yl)-1-cyano-1-methylethyl]-4-trifluoromethoxybenzamide], in assay [1], the inhibition in vivo at 10 mg/kg was no less than 95%. Further, the inhibition at 0.0025 ppm in assay [3] was no less than 90%.
For the compound `CC(C#N)(Cn1cc2ccc(Cl)c(Cl)c2n1)NC(=O)c1ccc(OC(F)(F)F)cc1` (centres unmarked) [Compound 2.045, N-[1-Cyano-2-(6,7-dichloro-2H-indazol-2-yl)-1-methylethyl]-4-trifluoromethoxybenzamide], in assay [3], the inhibition at 0.0025 ppm was no less than 90%.
For `Cc1c2ccc(Cl)cc2nn1CC(C)(C#N)NC(=O)c1ccc(OC(F)(F)F)cc1` (centres unmarked) [Compound 2.050, N-[2-(6-Chloro-3-methyl-2H-indazol-2-yl)-1-cyano-1-methylethyl]-4-trifluoromethoxybenzamide], the inhibition at 0.0025 ppm in assay [3] is no less than 90%.
Turning to `COc1c2ncc(Cl)cc2nn1CC(C)(C#N)NC(=O)c1ccc(OC(F)(F)F)cc1` (centres unmarked) [Compound 3.001, N-[2-(6-Chloro-3-methoxy-2H-pyrazolo[4,3-b]pyridin-2-yl)-1-cyano-1-methylethyl]-4-trifluoromethoxybenzamide], in assay [1], the inhibition in vivo at 1 mg/kg is no less than 95% and the inhibition in vivo at 10 mg/kg is no less than 95%. Further, the inhibition at 0.0025 ppm in assay [3] was no less than 90%.
In the case of `Cc1c(Br)cnc2nn(CC(C)(C#N)NC(=O)c3ccc(OC(F)(F)F)cc3)nc12` (centres unmarked) [Compound 3.003, N-[2-(6-Bromo-7-methyl-2H-[1,2,3]triazolo[4,5-b]pyridin-2-yl)-1-cyano-1-methylethyl]-4-trifluoromethoxybenzamide], in assay [3], the inhibition at 0.15 ppm is no less than 90%.
As for `COc1c2ncc(Br)c(C)c2nn1CC(C)(C#N)NC(=O)c1ccc(OC(F)(F)F)cc1` (centres unmarked) [Compound 3.007, N-[2-(6-Bromo-3-methoxy-7-methyl-2H-pyrazolo[4,3-b]pyridin-2-yl)-1-cyano-1-methylethyl]-4-trifluoromethoxybenzamide], in assay [1], the inhibition in vivo at 1 mg/kg was no less than 95%. Besides, in assay [3], the inhibition at 0.01 ppm is no less than 90%.
With `COc1c2ncc(Cl)c(C)c2nn1CC(C)(C#N)NC(=O)c1ccc(OC(F)(F)F)cc1` (centres unmarked) [Compound 3.008, N-[2-(6-Chloro-3-methoxy-7-methyl-2H-pyrazolo[4,3-b]pyridin-2-yl)-1-cyano-1-methylethyl]-4-trifluoromethoxybenzamide], in assay [3], the inhibition at 0.01 ppm is no less than 90%.
For `Cc1c(Cl)cnc2cn(CC(C)(C#N)NC(=O)c3ccc(OC(F)(F)F)cc3)nc12` (centres unmarked) [Compound 3.010, N-[2-(6-Chloro-7-methyl-2H-pyrazolo[4,3-b]pyridin-2-yl)-1-cyano-1-methylethyl]-4-trifluoromethoxybenzamide], the inhibition at 0.04 ppm in assay [3] was no less than 90%.

Values taken from patent publication US8088801B2, “Aryloazol-2-yl cyanoethylamino compounds, method of making and method of using thereof” (Merial Limited, priority 2007, dated 2012).
